Species on record: Rattus norvegicus
Assay: Open TG-GATES - Regimen: Daily Repeat
Type: toxicity, organism-based, Sprague-Dawley
Set-up: regimen Daily Repeat, gender Male, age 6 weeks
Details: in vivo, po, route gavage; for APTT / Bas / Eos / Fbg / Hb / Ht / Lym / MCH / MCHC / MCV / Mono / Neu / PT / Plat / RBC / Ret / WBC: tissue Blood; for KIDNEY_L / KIDNEY_R / KIDNEY_TOTAL: tissue Kidney; for LIVER: tissue Liver; for A/G / ALP / ALT / AST / BUN / CRE / Ca / Cl / DBIL / GLC / IP / K / LDH / Na / PL / RALB / TBIL / TC / TG / TP / gamma-GTP: tissue Plasma
[1] = 60 mg/kg, 72 h, dose level Middle, time 3 day
[2] = 60 mg/kg, […], dose level Middle, time 7 day
[3] = 60 mg/kg, […], dose level Middle, time 14 day
[4] = 60 mg/kg, […], dose level Middle, time 28 day
[5] = 200 mg/kg, 72 h, dose level High, time 3 day
[6] = 200 mg/kg, […], dose level High, time 7 day
[7] = 200 mg/kg, […], dose level High, time 14 day
[8] = 200 mg/kg, […], dose level High, time 28 day

CC(CN1c2ccccc2Sc2ccccc21)N(C)C (centres undefined) [PROMETHAZINE]
TERMINAL_BW [1]: 228.9 g
APTT [1]: 22.4 s
Bas [1]: 0%
Eos [1]: 0.8%
Fbg [1]: 300.8 mg/dL
Hb [1]: 13.3 g/dL
Ht [1]: 40.1%
Lym [1]: 78.8%
MCH [1]: 20.8 pg
MCHC [1]: 33.1%
MCV [1]: 62.8 fL
Mono [1]: 2.4%
Neu [1]: 17%
PT [1]: 16.1 s
Plat [1]: 121.6 x10_4/uL
RBC [1]: 639.4 x10_4/ul
Ret [1]: 6.1%
WBC [1]: 113.7 x10_2/uL
KIDNEY_L [1]: 1 g
KIDNEY_R [1]: 1 g
KIDNEY_TOTAL [1]: 2 g
LIVER [1]: 11.7 g
A/G [1]: 1.3
ALP [1]: 1638.6 IU/L
ALT [1]: 45.8 IU/L
AST [1]: 74.6 IU/L
BUN [1]: 16.8 mg/dL
CRE [1]: 0.2 mg/dL
Ca [1]: 10.9 mg/dL
Cl [1]: 106.6 meq/L
DBIL [1]: 0.002 mg/dL
GLC [1]: 184.8 mg/dL
IP [1]: 7 mg/dL
K [1]: 4.3 meq/L
LDH [1]: 158.2 IU/L
Na [1]: 142 meq/L
PL [1]: 140.8 mg/dL
RALB [1]: 3.1 g/dL
TBIL [1]: 0.008 mg/dL
TC [1]: 73.2 mg/dL
TG [1]: 122.8 mg/dL
TP [1]: 5.5 g/dL
gamma-GTP [1]: 1.4 IU/L
TERMINAL_BW [2]: 255.8 g
TERMINAL_BW [3]: 294.2 g
TERMINAL_BW [4]: 366.5 g
APTT [2]: 23.8 s
Bas [2]: 0%
Eos [2]: 0.8%
Fbg [2]: 293.6 mg/dL
Hb [2]: 13.6 g/dL
Ht [2]: 41.2%
Lym [2]: 80.4%
MCH [2]: 20.2 pg
MCHC [2]: 33.1%
MCV [2]: 61.1 fL
Mono [2]: 2.8%
Neu [2]: 15.2%
PT [2]: 15.8 s
Plat [2]: 107.7 x10_4/uL
RBC [2]: 674.2 x10_4/ul
Ret [2]: 5.1%
WBC [2]: 158 x10_2/uL
APTT [3]: 25 s
Bas [3]: 0%
Eos [3]: 1%
Fbg [3]: 312.6 mg/dL
Hb [3]: 14.2 g/dL
Ht [3]: 41.7%
Lym [3]: 77.8%
MCH [3]: 20.1 pg
MCHC [3]: 34%
MCV [3]: 59.1 fL
Mono [3]: 2%
Neu [3]: 18.4%
PT [3]: 15.6 s
Plat [3]: 111.3 x10_4/uL
RBC [3]: 706.4 x10_4/ul
Ret [3]: 4.8%
WBC [3]: 120.7 x10_2/uL
APTT [4]: 25.7 s
Bas [4]: 0%
Eos [4]: 1%
Fbg [4]: 303.6 mg/dL
Hb [4]: 15.3 g/dL
Ht [4]: 43.8%
Lym [4]: 79.2%
MCH [4]: 19.6 pg
MCHC [4]: 34.9%
MCV [4]: 56.4 fL
Mono [4]: 1.8%
Neu [4]: 17.2%
PT [4]: 16.3 s
Plat [4]: 96 x10_4/uL
RBC [4]: 778.4 x10_4/ul
Ret [4]: 2.9%
WBC [4]: 96 x10_2/uL
KIDNEY_L [2]: 1.1 g
KIDNEY_R [2]: 1.1 g
KIDNEY_TOTAL [2]: 2.2 g
KIDNEY_L [3]: 1.2 g
KIDNEY_R [3]: 1.2 g
KIDNEY_TOTAL [3]: 2.4 g
KIDNEY_L [4]: 1.4 g
KIDNEY_R [4]: 1.4 g
KIDNEY_TOTAL [4]: 2.8 g
LIVER [2]: 13.5 g
LIVER [3]: 14.9 g
LIVER [4]: 17.3 g
A/G [2]: 1.2
ALP [2]: 1458.6 IU/L
ALT [2]: 44 IU/L
AST [2]: 71 IU/L
BUN [2]: 20.6 mg/dL
CRE [2]: 0.2 mg/dL
Ca [2]: 10.7 mg/dL
Cl [2]: 106.2 meq/L
DBIL [2]: 0 mg/dL
GLC [2]: 181.2 mg/dL
IP [2]: 7 mg/dL
K [2]: 4.4 meq/L
LDH [2]: 143.4 IU/L
Na [2]: 141.8 meq/L
PL [2]: 144.4 mg/dL
RALB [2]: 3 g/dL
TBIL [2]: 0.006 mg/dL
TC [2]: 75.4 mg/dL
TG [2]: 106.2 mg/dL
TP [2]: 5.6 g/dL
gamma-GTP [2]: 2.2 IU/L
A/G [3]: 1.2
ALP [3]: 1448 IU/L
ALT [3]: 46.6 IU/L
AST [3]: 72.2 IU/L
BUN [3]: 19 mg/dL
CRE [3]: 0.2 mg/dL
Ca [3]: 10.9 mg/dL
Cl [3]: 106 meq/L
DBIL [3]: 0 mg/dL
GLC [3]: 182.2 mg/dL
IP [3]: 6.9 mg/dL
K [3]: 4.1 meq/L
LDH [3]: 128.4 IU/L
Na [3]: 142.4 meq/L
PL [3]: 150.4 mg/dL
RALB [3]: 3.2 g/dL
TBIL [3]: 0.012 mg/dL
TC [3]: 76 mg/dL
TG [3]: 128.4 mg/dL
TP [3]: 5.9 g/dL
gamma-GTP [3]: 2.4 IU/L
A/G [4]: 1.1
ALP [4]: 1017.8 IU/L
ALT [4]: 49.4 IU/L
AST [4]: 69 IU/L
BUN [4]: 18.8 mg/dL
CRE [4]: 0.2 mg/dL
Ca [4]: 10.8 mg/dL
Cl [4]: 104 meq/L
DBIL [4]: 0 mg/dL
GLC [4]: 185.6 mg/dL
IP [4]: 7 mg/dL
K [4]: 3.7 meq/L
LDH [4]: 158 IU/L
Na [4]: 143.2 meq/L
PL [4]: 152.4 mg/dL
RALB [4]: 3.3 g/dL
TBIL [4]: 0.026 mg/dL
TC [4]: 79 mg/dL
TG [4]: 105.2 mg/dL
TP [4]: 6.3 g/dL
gamma-GTP [4]: 2.2 IU/L
TERMINAL_BW [5]: 194.8 g
APTT [5]: 23.9 s
Bas [5]: 0%
Eos [5]: 0.8%
Fbg [5]: 333.2 mg/dL
Hb [5]: 15 g/dL
Ht [5]: 44.4%
Lym [5]: 74.6%
MCH [5]: 20.7 pg
MCHC [5]: 33.7%
MCV [5]: 61.6 fL
Mono [5]: 2.8%
Neu [5]: 21%
PT [5]: 16.6 s
Plat [5]: 130.8 x10_4/uL
RBC [5]: 722.2 x10_4/ul
Ret [5]: 4.2%
WBC [5]: 73 x10_2/uL
KIDNEY_L [5]: 0.9 g
KIDNEY_R [5]: 0.9 g
KIDNEY_TOTAL [5]: 1.8 g
LIVER [5]: 10 g
A/G [5]: 1.3
ALP [5]: 1369.6 IU/L
ALT [5]: 46.8 IU/L
AST [5]: 69.2 IU/L
BUN [5]: 14.8 mg/dL
CRE [5]: 0.2 mg/dL
Ca [5]: 10.2 mg/dL
Cl [5]: 107.2 meq/L
DBIL [5]: 0.08 mg/dL
GLC [5]: 174.6 mg/dL
IP [5]: 8.3 mg/dL
K [5]: 4.3 meq/L
LDH [5]: 204.6 IU/L
Na [5]: 142.4 meq/L
PL [5]: 159.4 mg/dL
RALB [5]: 3.2 g/dL
TBIL [5]: 0.024 mg/dL
TC [5]: 98.6 mg/dL
TG [5]: 75.6 mg/dL
TP [5]: 5.8 g/dL
gamma-GTP [5]: 1.4 IU/L
TERMINAL_BW [6]: 231 g
TERMINAL_BW [7]: 258.5 g
TERMINAL_BW [8]: 339.7 g
APTT [6]: 23.3 s
Bas [6]: 0%
Eos [6]: 1%
Fbg [6]: 306.2 mg/dL
Hb [6]: 14.1 g/dL
Ht [6]: 42.2%
Lym [6]: 76.4%
MCH [6]: 19.7 pg
MCHC [6]: 33.4%
MCV [6]: 59.1 fL
Mono [6]: 3.2%
Neu [6]: 18.6%
PT [6]: 15.9 s
Plat [6]: 115.2 x10_4/uL
RBC [6]: 714.2 x10_4/ul
Ret [6]: 3.9%
WBC [6]: 129.8 x10_2/uL
APTT [7]: 22.6 s
Bas [7]: 0%
Eos [7]: 1%
Fbg [7]: 369.4 mg/dL
Hb [7]: 15 g/dL
Ht [7]: 43.8%
Lym [7]: 70.4%
MCH [7]: 19.7 pg
MCHC [7]: 34.2%
MCV [7]: 57.4 fL
Mono [7]: 3.2%
Neu [7]: 24.6%
PT [7]: 16.1 s
Plat [7]: 120.6 x10_4/uL
RBC [7]: 763.2 x10_4/ul
Ret [7]: 4%
WBC [7]: 105 x10_2/uL
APTT [8]: 23.6 s
Bas [8]: 0%
Eos [8]: 1%
Fbg [8]: 316.4 mg/dL
Hb [8]: 15.3 g/dL
Ht [8]: 43.5%
Lym [8]: 71.6%
MCH [8]: 19.3 pg
MCHC [8]: 35.1%
MCV [8]: 55.1 fL
Mono [8]: 3%
Neu [8]: 23.4%
PT [8]: 16.4 s
Plat [8]: 108 x10_4/uL
RBC [8]: 791.6 x10_4/ul
Ret [8]: 3.3%
WBC [8]: 135.4 x10_2/uL
KIDNEY_L [6]: 1 g
KIDNEY_R [6]: 1.1 g
KIDNEY_TOTAL [6]: 2.1 g
KIDNEY_L [7]: 1.1 g
KIDNEY_R [7]: 1.1 g
KIDNEY_TOTAL [7]: 2.2 g
KIDNEY_L [8]: 1.3 g
KIDNEY_R [8]: 1.3 g
KIDNEY_TOTAL [8]: 2.6 g
LIVER [6]: 14.7 g
LIVER [7]: 15.1 g
LIVER [8]: 21.1 g
A/G [6]: 1.1
ALP [6]: 1435.2 IU/L
ALT [6]: 56.4 IU/L
AST [6]: 75.4 IU/L
BUN [6]: 19.6 mg/dL
CRE [6]: 0.2 mg/dL
Ca [6]: 10.9 mg/dL
Cl [6]: 104.8 meq/L
DBIL [6]: 0.004 mg/dL
GLC [6]: 179.4 mg/dL
IP [6]: 7.8 mg/dL
K [6]: 4.5 meq/L
LDH [6]: 167.8 IU/L
Na [6]: 142 meq/L
PL [6]: 170.6 mg/dL
RALB [6]: 3 g/dL
TBIL [6]: 0.008 mg/dL
TC [6]: 84.8 mg/dL
TG [6]: 127 mg/dL
TP [6]: 5.7 g/dL
gamma-GTP [6]: 2.8 IU/L
A/G [7]: 1
ALP [7]: 1417 IU/L
ALT [7]: 53.6 IU/L
AST [7]: 73.8 IU/L
BUN [7]: 20.6 mg/dL
CRE [7]: 0.2 mg/dL
Ca [7]: 11 mg/dL
Cl [7]: 103.2 meq/L
DBIL [7]: 0.014 mg/dL
GLC [7]: 184.6 mg/dL
IP [7]: 8 mg/dL
K [7]: 4.2 meq/L
LDH [7]: 249 IU/L
Na [7]: 143.4 meq/L
PL [7]: 182.4 mg/dL
RALB [7]: 3.1 g/dL
TBIL [7]: 0.018 mg/dL
TC [7]: 99 mg/dL
TG [7]: 117.2 mg/dL
TP [7]: 6.1 g/dL
gamma-GTP [7]: 3.4 IU/L
A/G [8]: 1
ALP [8]: 1191.4 IU/L
ALT [8]: 54.6 IU/L
AST [8]: 66 IU/L
BUN [8]: 21.2 mg/dL
CRE [8]: 0.2 mg/dL
Ca [8]: 10.8 mg/dL
Cl [8]: 104.2 meq/L
DBIL [8]: 0.008 mg/dL
GLC [8]: 175.2 mg/dL
IP [8]: 6.8 mg/dL
K [8]: 4.1 meq/L
LDH [8]: 146 IU/L
Na [8]: 142.8 meq/L
PL [8]: 211.4 mg/dL
RALB [8]: 3.2 g/dL
TBIL [8]: 0.02 mg/dL
TC [8]: 116.8 mg/dL
TG [8]: 136.6 mg/dL
TP [8]: 6.3 g/dL
gamma-GTP [8]: 4.2 IU/L

Source: ChEMBL document CHEMBL3885861, “Open TG-GATES”
